In data set [1] the test system is optic nerve head astrocytes (ONHA). The data set can be described thus: ONHA cell viability after tBHP oxidative stress, MTT assay. To be noted: 16 h, then tBHP 40 μM 6 h.
Protocol: Cell viability was assessed using the MTT colorimetric assay.
The test system is the same in data set [2]. The data set is described as follows: ONHA oxidative stress (ROS) after tBHP, DCF fluorescence. In kind it is cell-based, rat. As to conditions: 0.05 μM alone, 16 h, then tBHP 80 μM 6 h. As to the method:
CM-H2DCFDA is cleaved to form non-fluorescent H2DCF, which is then oxidized to form the fluorescent DCF. DCF levels are indicative of ROS. Cell viability was also assessed using the commonly used colorimetric MTT assay.

Data set [3] deals with Sigma-1 Receptor (S1R) (Homo sapiens (Human), UniProt Q99720). The data set is described as follows: In-vitro binding assay, Sigma-1 receptor (Eurofins Panlabs). As to conditions: Cheng Prusoff equation.
Sequence of Sigma-1 Receptor (S1R) (Q99720 whole entry, species assumed): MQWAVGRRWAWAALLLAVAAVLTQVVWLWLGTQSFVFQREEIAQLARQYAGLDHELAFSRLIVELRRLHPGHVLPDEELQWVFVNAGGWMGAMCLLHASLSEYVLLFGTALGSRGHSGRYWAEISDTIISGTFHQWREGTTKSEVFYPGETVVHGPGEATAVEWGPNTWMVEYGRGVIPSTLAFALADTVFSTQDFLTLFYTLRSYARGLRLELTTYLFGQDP
Data set [4] concerns RGCs. To be noted: two experimental glaucoma models, elevated IOP.
Data set [5] concerns B104 neuroblastoma cells. To be noted: in-situ ELISA; Geva et al. 2016; cited from earlier work. Background: ELISA stands for enzyme-linked immunosorbent assay.

The structures appear in SMILES notation.

As to `CCCN1CCC(O)(c2cccc(S(C)(=O)=O)c2)CC1` [Compound 1], the “increase in cell viability” value in data set [1] (0.01 μM alone) is on record as “neither pridopidine (0.05 μM) nor compound 1 (0.01 μM) have any effect”. The “reduction of oxidative stress (DCF fluorescence)” value in data set [2] is given as 5%. Further, the “S1R Ki” value in data set [3] is reported as “high affinity”.
On to `CCCN1CC[C@@H](c2cccc(S(C)(=O)=O)c2)[C@@H](O)C1` [Compound 4], for which, in data set [1] (0.1 μM alone), the “increase in cell viability” value was “neither pridopidine (0.05 μM) nor compound 4 (0.1 μM) have any effect”. Further, in data set [3], the “S1R Ki” value is on record as “high affinity”.
In the case of `CCCN1CCC(c2cccc(S(C)(=O)=O)c2)CC1` [Pridopidine, 4-(3-(Methylsulfonyl)phenyl)-1-propylpiperidine], in data set [4], the “effect on RGCs” value is on record as “neuroprotective effect” and the “relation of protective effect to IOP” value was “not mediated by lowering IOP”. Further, in data set [2], the “reduction of oxidative stress (DCF fluorescence)” value was 30%. Further, the “BDNF secretion in rat neuroblastoma cells” value in data set [5] was “dose dependent increase”.

The record behind these values is patent publication US20240261273A1 (PRILENIA NEUROTHERAPEUTICS LTD., priority 2021, published 2024).
